Assay results from BindingDB's records for doi:10.1111/cbdd.12050 (Epizyme, 2012).

Target: Histone-lysine N-methyltransferase, H3 lysine-79 specific (Homo sapiens, UniProt Q8TEK3)
Experiment: Enzyme Assay
Method: Assay of DOT1L enzymatic activity were performed under balanced conditions using a radiometric assay.

Sequence of Histone-lysine N-methyltransferase, H3 lysine-79 specific (Q8TEK3 whole entry): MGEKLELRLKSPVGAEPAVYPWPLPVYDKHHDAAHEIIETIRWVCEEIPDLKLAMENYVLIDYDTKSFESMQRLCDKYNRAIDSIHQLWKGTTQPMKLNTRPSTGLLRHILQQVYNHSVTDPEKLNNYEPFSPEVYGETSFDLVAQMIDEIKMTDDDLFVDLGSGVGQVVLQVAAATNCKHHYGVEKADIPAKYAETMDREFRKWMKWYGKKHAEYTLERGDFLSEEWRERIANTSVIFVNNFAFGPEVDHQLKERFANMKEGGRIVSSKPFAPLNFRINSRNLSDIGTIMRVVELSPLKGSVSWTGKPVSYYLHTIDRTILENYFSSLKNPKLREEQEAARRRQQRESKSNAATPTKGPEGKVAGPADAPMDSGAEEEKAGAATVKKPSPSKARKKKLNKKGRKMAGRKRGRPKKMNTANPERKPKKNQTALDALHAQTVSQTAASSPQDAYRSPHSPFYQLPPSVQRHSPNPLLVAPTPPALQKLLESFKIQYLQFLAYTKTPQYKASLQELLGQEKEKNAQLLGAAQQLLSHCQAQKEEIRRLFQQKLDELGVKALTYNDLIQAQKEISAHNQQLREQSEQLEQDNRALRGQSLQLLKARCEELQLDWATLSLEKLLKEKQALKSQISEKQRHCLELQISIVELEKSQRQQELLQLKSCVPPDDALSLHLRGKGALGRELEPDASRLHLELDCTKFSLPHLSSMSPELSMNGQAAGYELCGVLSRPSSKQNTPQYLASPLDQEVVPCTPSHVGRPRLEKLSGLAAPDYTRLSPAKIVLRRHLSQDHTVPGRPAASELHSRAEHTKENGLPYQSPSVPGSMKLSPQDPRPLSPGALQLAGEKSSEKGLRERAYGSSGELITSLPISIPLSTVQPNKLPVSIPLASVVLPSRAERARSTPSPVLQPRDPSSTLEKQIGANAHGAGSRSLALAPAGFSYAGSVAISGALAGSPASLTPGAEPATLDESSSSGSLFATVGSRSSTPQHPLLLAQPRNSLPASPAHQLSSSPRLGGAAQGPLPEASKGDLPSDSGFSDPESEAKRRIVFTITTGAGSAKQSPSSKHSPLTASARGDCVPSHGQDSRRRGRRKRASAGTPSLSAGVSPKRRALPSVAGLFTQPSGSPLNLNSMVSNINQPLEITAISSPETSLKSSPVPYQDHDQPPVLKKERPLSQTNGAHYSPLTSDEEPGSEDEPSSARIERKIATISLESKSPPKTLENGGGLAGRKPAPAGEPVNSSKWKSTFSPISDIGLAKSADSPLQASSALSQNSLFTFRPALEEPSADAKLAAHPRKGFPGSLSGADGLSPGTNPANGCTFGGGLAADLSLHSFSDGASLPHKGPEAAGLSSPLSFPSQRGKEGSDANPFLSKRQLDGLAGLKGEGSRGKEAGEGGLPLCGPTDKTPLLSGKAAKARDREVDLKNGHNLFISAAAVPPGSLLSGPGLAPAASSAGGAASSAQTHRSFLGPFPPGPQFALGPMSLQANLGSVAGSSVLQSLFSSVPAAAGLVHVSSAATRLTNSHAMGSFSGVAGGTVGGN

CN(CCNC(=O)Nc1ccc(C(C)(C)C)cc1)CC1OC(n2cnc3c(N)ncnc32)[C@H](O)[C@@H]1O (some centres not stated) [EPZ003647]
Kd: 167 nM | Ki: 845 nM
